The source of these data is publication PMC6130714, “The α-amylase and α-glucosidase inhibitory activities of the dichloromethane extracts and constituents of Ferulago bracteata roots” (Pharmaceutical Biology, 2017).

Converted amounts (≈) assume the structure as drawn. Like-named read-outs stand apart in the source and are kept apart here.

One assay deals with α-amylase. The experiment in a line: α-Amylase inhibitory activity (starch, dinitrosalicylic acid). The class given is biochemical. As to conditions: concentration 1 mg/mL. How it is done: α-Amylase inhibitory activity was established in accordance with the reported method (Nampoothiri et al. [2011]) with slight modifications. One percent starch solution (100 µL) in 20 mM sodium phosphate buffer (pH 6.9 with 6 mM sodium chloride) and sample solutions (100 µL) were incubated at 25 °C for 10 min in 24-well microplate. After incubation, 100 µL α-amylase solution (0.5 mg/mL) was added to each well and the reaction mixtures were incubated at 25 °C for 10 min. In order to stop the reaction after the incubation, dinitrosalicylic acid color reagent (200 µL) was added and then the microplate was incubated in a boiling water bath for 5 min and cooled at room temperature. 50 µL was taken from each well and then was added to 96-well microplate. The reaction mixture was diluted by adding 200 µL distilled water and absorbance was measured at 540 nm. Each assay for all samples was carried out in triplicate. Percentage inhibitions of all samples were calculated using the equation at following: Inhibition %=1-ΔAsample /ΔAcontrol×100
All results are expressed as mean ± SE and differences between means were statistically analyzed using one-way analysis of ANOVA followed by Bonferroni’s complementary analysis, with p < 0.05 considered to indicate statistical significance.

Assay [1] has as its system α-Glucosidase. Kind of assay: α-Glucosidase inhibitory activity (p-NPG substrate, 96-well plate). The class given is biochemical. As to conditions: for α-Glucosidase inhibition (%): mean of three replicates. How it is done: α-Glucosidase inhibitory activity was established by using a 96-well microtiter plate in accordance with the described method (Tao et al. […] Samples were dissolved in dimethyl sulfoxide (DMSO) and all samples (20 µL) together with the enzyme solution (20 µL) were mixed in the plate. Afterwards, the substrate (40 µL) was added for initiation of the reaction and the mixture was incubated at 37 °C for 40 min. After incubation is complete, 0.2 M sodium carbonate (80 µL) in phosphate buffer (pH 6.8) was added to all wells in order to quench the reaction. The amount of released p-nitrophenol (pNP) was measured at 405 nm using a 96-well microplate reader. Each assay for all samples was carried out in triplicate. […] All results are expressed as mean ± SE and differences between means were statistically analyzed using one-way analysis of ANOVA followed by Bonferroni’s complementary analysis, with p < 0.05 considered to indicate statistical significance.

The test system of assay [2] is α-Glucosidase. As to conditions: cited from earlier work; for α-glucosidase inhibitory activity (in words): compared to acarbose, ref Luo et al. [2012].

Turning to `C[C@H]1O[C@H](O[C@H]2[C@H](O)[C@@H](O)[C@@H](O[C@H]3[C@H](O)[C@@H](O)C(O)O[C@@H]3CO)O[C@@H]2CO)[C@H](O)[C@@H](O)[C@@H]1N[C@H]1C=C(CO)[C@@H](O)[C@H](O)[C@H]1O` (some centres unmarked) [Acarbose, acarbose, reference compound], the α-amylase inhibition in the assay with α-amylase amounted to 82.28%. Further, the “α-Glucosidase inhibition (%)” value is listed as 29.43 ± 1.71% in the assay with α-Glucosidase [1] (concentration 2000 µg/mL) and 50.81 ± 2.51% with α-Glucosidase [1] (concentration 5000 µg/mL).
`COc1c2ccoc2cc2oc(=O)ccc12` [Bergapten, bergapten]: the “IC50 value (α-glucosidase)” value against α-Glucosidase [1] came out at 6120 µg/mL (≈ 28.3 mM). Besides, the “α-Glucosidase inhibition (%)” value in the assay on α-Glucosidase [1] (concentration 2000 µg/mL) came to 39.71 ± 2.44%; in the assay on α-Glucosidase [1] (concentration 5000 µg/mL), 42.26 ± 0.43%. In addition, in the assay with α-Glucosidase [2], the “α-glucosidase inhibitory activity (in words)” value is listed as “too low to compare to that of acarbose”.
Turning to `CC(C)(OC(=O)c1ccccc1)[C@@H]1Cc2cc3ccc(=O)oc3cc2O1` [Felamidin, felamidin], at α-Glucosidase [1], the “IC50 value (α-glucosidase)” value is 420 µg/mL (≈ 1.2 mM). Moreover, the “α-Glucosidase inhibition (%)” value is reported as 64.93 ± 2.06% in the assay on α-Glucosidase [1] (concentration 2000 µg/mL) and 94.57 ± 0.05% in the assay with α-Glucosidase [1] (concentration 5000 µg/mL). The “times more effective than acarbose against α-glucosidase” value in the assay with α-Glucosidase [1] (ratio of IC50 values vs acarbose) worked out at 11 times.
Take `CC(C)=CC(=O)OC(Cc1cc2ccc(=O)oc2cc1O)C(C)(C)O` (centres unmarked) [Grandivitinol, grandivitinol]: the “IC50 value (α-glucosidase)” value at α-Glucosidase [1] was found to be 20010 µg/mL (≈ 57.8 mM). Besides, the results for the “α-Glucosidase inhibition (%)” value in the assay on α-Glucosidase [1] (concentration 2000 µg/mL) and in the assay with α-Glucosidase [1] (concentration 5000 µg/mL) were 7.84 ± 0.71% and 12.30 ± 0.36%, respectively.
For the molecule `CC(C)=CCOc1c2occc2cc2ccc(=O)oc12` [Imperatorin, imperatorin], the “IC50 value (α-glucosidase)” value against α-Glucosidase [1] came out at 1230 µg/mL (≈ 4.55 mM). The “α-Glucosidase inhibition (%)” value is reported as 63.07 ± 0.69% in the assay on α-Glucosidase [1] (concentration 2000 µg/mL); 88.97 ± 0.88% in the assay on α-Glucosidase [1] (concentration 5000 µg/mL); 69.66 ± 3.67% in the assay with α-Glucosidase [2] (at 1000 µg/mL, ref Shalaby et al. [2014]). Further, in the assay on α-Glucosidase [2], the “α-glucosidase inhibitory activity (in words)” value is reported as “too low to compare to that of acarbose”.
In the case of `COc1ccc2ccc(=O)oc2c1CC=C(C)C` [Osthole, osthole], on α-Glucosidase [1], the “IC50 value (α-glucosidase)” value turned out to be 950 µg/mL (≈ 3.89 mM). In addition, the entries for the “α-Glucosidase inhibition (%)” value with α-Glucosidase [1] (concentration 2000 µg/mL) and with α-Glucosidase [1] (concentration 5000 µg/mL) were 84.31 ± 1.72% and 93.31 ± 0.29%, respectively.
Regarding `CC(C)(O)C(Cc1cc2ccc(=O)oc2cc1O)OC(=O)c1ccccc1` (centres unmarked) [Peucedanol-2'-benzoate, peucedanol-2′-benzoate], the “α-Glucosidase inhibition (%)” value in the assay with α-Glucosidase [1] (concentration 2000 µg/mL) stood at 66.86 ± 0.37%; in the assay with α-Glucosidase [1] (concentration 5000 µg/mL) it was 77.22 ± 0.44%.
For the molecule `CC(C)=CC(=O)OC(C)(C)C1Cc2cc3ccc(=O)oc3cc2O1` (centres unmarked) [Prantschimgin, prantschimgin], the “IC50 value (α-glucosidase)” value against α-Glucosidase [1] came out at 1860 µg/mL (≈ 5.66 mM). In addition, the “α-Glucosidase inhibition (%)” value with α-Glucosidase [1] (concentration 2000 µg/mL) is 51.95 ± 0.01%; with α-Glucosidase [1] (concentration 5000 µg/mL) it was 68.23 ± 0.39%.
Turning to `COc1cc2oc(=O)ccc2cc1CC=C(C)C` [Suberosin, suberosin], the “IC50 value (α-glucosidase)” value against α-Glucosidase [1] is 890 µg/mL (≈ 3.64 mM). Also, the “α-Glucosidase inhibition (%)” value with α-Glucosidase [1] (concentration 2000 µg/mL) worked out at 81.58 ± 1.15%; with α-Glucosidase [1] (concentration 5000 µg/mL), 87.95 ± 1.07%.
On to `O=c1ccc2ccc(O)cc2o1` [Umbelliferone, umbelliferone], for which, at α-Glucosidase [1], the “IC50 value (α-glucosidase)” value was found to be 9320 µg/mL (≈ 57.5 mM). Further, the “α-Glucosidase inhibition (%)” value with α-Glucosidase [1] (concentration 2000 µg/mL) is 8.84 ± 0.02%; in the assay with α-Glucosidase [1] (concentration 5000 µg/mL), 10.27 ± 0.49%. The “α-glucosidase IC50 value” at α-Glucosidase [2] (at 0.5 mg/mL, ref Ayyasamy & Rajamanickam 2015) is 547 µg/mL.
As to `COc1c2occc2cc2ccc(=O)oc12` [Xanthotoxin, xanthotoxin], the “IC50 value (α-glucosidase)” value at α-Glucosidase [1] turned out to be 5380 µg/mL (≈ 24.9 mM). Further, the “α-Glucosidase inhibition (%)” value with α-Glucosidase [1] (concentration 2000 µg/mL) is listed as 37.95 ± 8.64%; in the assay with α-Glucosidase [1] (concentration 5000 µg/mL) it was 45.76 ± 4.82%. The “α-glucosidase inhibitory activity (in words)” value in the assay on α-Glucosidase [2] was “too low to compare to that of acarbose”.
